Experiments:
Conditions in all cases: 72 h
Caco-2 [1] = assay: cell viability relative to DMSO; higher = less toxic
Calu-3 [2] = assay: as above
HepG2 [3] = assay: as above
U2OS [4] = assay: as above
Vero E6 [5] = assay: as above
Caco-2 [6] = assay: relative viability EC50 (midpoint between 100% and the lowest measured viability); higher = less toxic
Calu-3 [7] = assay: as above
HepG2 [8] = assay: as above
U2OS [9] = assay: as above
Vero E6 [10] = assay: as above
Caco-2 [11] = assay: drug sensitivity score (DSS) for viability; higher = more toxic; extreme values may be limits of the assay
Calu-3 [12] = assay: as above
HepG2 [13] = assay: as above
U2OS [14] = assay: as above
Vero E6 [15] = assay: as above

Row | SMILES | cell viability (Caco-2 [1]; 1 nM) [%] | cell viability (Caco-2 [1]; 10 nM) [%] | cell viability (Caco-2 [1]; 100 nM) [%] | cell viability (Caco-2 [1]; 1000 nM) [%] | cell viability (Caco-2 [1]; 10000 nM) [%] | cell viability (Calu-3 [2]; 1 nM) [%] | cell viability (Calu-3 [2]; 10 nM) [%] | cell viability (Calu-3 [2]; 100 nM) [%] | cell viability (Calu-3 [2]; 1000 nM) [%] | cell viability (Calu-3 [2]; 10000 nM) [%] | cell viability (HepG2 [3]; 1 nM) [%] | cell viability (HepG2 [3]; 10 nM) [%] | cell viability (HepG2 [3]; 100 nM) [%] | cell viability (HepG2 [3]; 1000 nM) [%] | cell viability (HepG2 [3]; 10000 nM) [%] | cell viability (U2OS [4]; 1 nM) [%] | cell viability (U2OS [4]; 10 nM) [%] | cell viability (U2OS [4]; 100 nM) [%] | cell viability (U2OS [4]; 1000 nM) [%] | cell viability (U2OS [4]; 10000 nM) [%] | cell viability (Vero E6 [5]; 1 nM) [%] | cell viability (Vero E6 [5]; 10 nM) [%] | cell viability (Vero E6 [5]; 100 nM) [%] | cell viability (Vero E6 [5]; 1000 nM) [%] | cell viability (Vero E6 [5]; 10000 nM) [%] | relative viability EC50 (Caco-2 [6]) [µM] | relative viability EC50 (Calu-3 [7]) [µM] | relative viability EC50 (HepG2 [8]) [µM] | relative viability EC50 (U2OS [9]) [µM] | relative viability EC50 (Vero E6 [10]) [µM] | drug sensitivity score (Caco-2 [11]) | drug sensitivity score (Calu-3 [12]) | drug sensitivity score (HepG2 [13]) | drug sensitivity score (U2OS [14]) | drug sensitivity score (Vero E6 [15])
1 | CC(=O)[C@H]1CC[C@H]2[C@@H]3CC[C@H]4C[C@](C)(O)CC[C@]4(C)[C@H]3CC[C@]12C [ganaxolone] | 95 | 98.7 | 98.2 | 98.7 | 101 | 96.7 | 94 | 98.5 | 98.4 | 102 | 93.4 | 108 | 94.2 | 102 | 101 | 98.8 | 99.4 | 101 | 100 | 100 | 89.8 | 103 | 91.2 | 95.7 | 106 | > 10 | > 10 | > 10 | > 10 | > 10 | 0 | 0 | 0 | 0 | 0
2 | COc1ccc(C(CN(C)C)C2(O)CCCCC2)cc1 (stereo not given) [venlafaxine] | 110 | 87.5 | 125 | 127 | 82 | 104 | 99.9 | 95.6 | 99.9 | 107 | 108 | 112 | 95.8 | 93.2 | 107 | 97.1 | 91.5 | 102 | 97.4 | 102 | 99.2 | 100 | 84.1 | 92.9 | 101 | > 10 | > 10 | > 10 | > 10 | > 10 | 0.2 | 0 | 0 | 0 | 0
3 | Cc1cc(C(=O)Nc2cccc(C(=O)Nc3cccc(C(F)(F)F)c3)c2)on1 | 96.2 | 96.6 | 89.5 | 101 | 105 | 93.7 | 99.8 | 99.7 | 102 | 99.8 | 103 | 92.3 | 109 | 92.9 | 79.1 | 99 | 99.3 | 94.8 | 104 | 104 | 100 | 99.4 | 96.7 | 97.3 | 103 | > 10 | > 10 | > 10 | > 10 | > 10 | 0 | 0 | 1.5 | 0 | 0
4 | CCCc1ccc(C(=O)O)cc1 [4-propylbenzoic-acid] | 96.6 | 96.4 | 105 | 89.7 | 106 | 106 | 106 | 101 | 96.4 | 97.2 | 106 | 106 | 93.7 | 104 | 98.3 | 98.5 | 94.9 | 99.8 | 98.9 | 102 | 93.2 | 97.4 | 91.9 | 92.2 | 103 | > 10 | > 10 | > 10 | > 10 | > 10 | 0 | 0 | 0 | 0 | 0
5 | C=C1/C(=C\C=C2/CCC[C@]3(C)[C@@H]([C@H](C)/C=C/[C@H](C)C(C)C)CC[C@@H]23)C[C@@H](O)C[C@@H]1O [doxercalciferol] | 104 | 103 | 96.3 | 98.2 | 97.2 | 95.3 | 102 | 99.9 | 95.8 | 111 | 101 | 94.8 | 99.8 | 96.4 | 99.9 | 92.2 | 102 | 94.9 | 96.7 | 100 | 97.7 | 101 | 97.1 | 95.9 | 106 | > 10 | > 10 | > 10 | > 10 | > 10 | 0 | 0 | 0 | 0 | 0
6 | CCCCCCCCCCCCCCCCOc1nc2ccc(C)cc2c(=O)o1 [cetilistat] | 94.8 | 96.6 | 89.8 | 107 | 96.7 | 103 | 107 | 94.8 | 100 | 107 | 106 | 94 | 113 | 99.9 | 97.9 | 93.7 | 98.2 | 93.5 | 99.7 | 103 | 99.8 | 81.8 | 98 | 99.4 | 105 | > 10 | > 10 | > 10 | > 10 | > 10 | 0 | 0 | 0 | 0 | 0
7 | CC[C@@H]1C(=O)N(C)c2cnc(Nc3ccc(C(=O)N[C@H]4CC[C@H](N5CCN(CC6CC6)CC5)CC4)cc3OC)nc2N1C(C)C [volasertib] | 104 | 93.2 | 74 | 57.8 | 26.7 | 112 | 86.8 | 91.3 | 83.3 | 22.1 | 106 | 104 | 42.7 | 17.6 | 9.1 | 99 | 99.4 | 87.2 | 29.1 | 18.7 | 101 | 98 | 90.6 | 18.3 | 1.5 | 0.36 | 1.67 | 0.081 | 0.293 | 0.386 | 11.5 | 7 | 23.2 | 14.7 | 16.3

Reference: the supplement of paper PMC13380429
